Measurements: patent US8242275B2, “Bicyclic pyrazole compounds as antibacterial agents” (Janssen Pharmaceutica NV, priority 2005, dated 2012)
In brackets after ≈: the same amount, converted by molar mass. Read-outs that look alike come from different tables or passages of the source.

Key:
[1] = target: T1, E. coli topoisomerase IV (Escherichia coli, UniProt P0AFI2+P20083); experiment: Topoisomerase IV inhibition assay (relaxation); format: biochemical
T1 construct: purchased John Innes Enterprises Ltd. (John Innes Centre, UK)
Protocol: Inhibition of the relaxation activity of E. coli topoisomerase IV was determined using enzyme, buffers and substrates received from John Innes Enterprises Ltd. (John Innes Centre, UK). The reactions were performed according to the manufacturer's directions, with the following modifications.
DNA relaxation reactions were carried out in a total reaction volume of 20 μL, containing 300 ng of supercoiled pBR322, 40 mM HEPES-KOH (pH 7.6), 100 mM potassium glutamate, 10 mM Mg(OAc)2, 10 mM DTT, 4 μg/mL tRNA, 2 mM ATP, and 50 μg/mL BSA. Compounds, diluted in 10% DMSO, were added to the reaction mixture to reach a final concentration of 0.5% DMSO. Enzyme was diluted to 0.45 unit/μL in a solution of 40 mM HEPES-KOH (pH 7.6), 150 mM potassium glutamate, 1 mM DTT, 1 mM EDTA, and 40% glycerol. Diluted enzyme (0.9 unit) was added to each reaction.
The reactions were incubated at 37° C. for 45 min. The reactions were then cooled to 0° C. followed by addition of 3 μL of 40% glycerol, 100 mM Tris-HCl (pH 7.5), 50 mM EDTA, 0.5% SDS and 0.1% bromophenol blue. Samples were separated on 1.0% agarose gels. Gels were stained with Ethidium bromide and photographed with a Stratagene Eagle Eye II.

[2] = test system: E. coli KL-16 (GSC strain 4245); experiment: In vitro antibacterial activity (MIC assay), broth microdilution; format: cell-based; details: Escherichia coli
Summary of the method: (§1)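 Broth microdilution per NCCLS M7-A5: 11-point 2-fold compound dilutions from DMSO stocks, inoculum about 5×10^5 CFU/mL, incubation 35° C for 16–24 h. MIC scored visually against no-compound growth controls, in μg/mL.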

[3] = test system: S. pneumoniae ATCC49619; experiment: as above; format: cell-based; details: Streptococcus pneumoniae, ATCC49619; read-out: S. pneumoniae ATCC49619 MIC
Summary of the method: as §1

[4] = test system: S. aureus ATCC13709; experiment: as above; format: cell-based
Summary of the method: as §1

[5] = target: T2, E. coli DNA gyrase (Escherichia coli, UniProt P0AES4+P0AES6); experiment: DNA gyrase inhibition assay (supercoiling); format: biochemical
T2 construct: purchased John Innes Enterprises Ltd. (John Innes Centre, UK)
Summary of the method: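 Relaxed pBR322 (250 ng) was supercoiled by 0.2 unit gyrase in Tris-HCl pH 7.5, KCl, MgCl2, DTT, spermidine, 1 mM ATP, glycerol, albumin, 0.5% DMSO final, 30 min at 37° C. Products were resolved on 1.0% agarose gels with ethidium bromide staining.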

[6] = E. coli topoisomerase IV relaxation, visual inspection of gels, read-out: Topoisomerase IV IC50 (converted)
[7] = Staphylococcus aureus, ATCC13709; read-out: S. aureus ATCC13709 MIC
[8] = E. coli DNA gyrase supercoiling, visual inspection of gels, read-out: DNA Gyrase IC50 (converted)

T2 sequence (P0AES4 whole entry, one chain of several): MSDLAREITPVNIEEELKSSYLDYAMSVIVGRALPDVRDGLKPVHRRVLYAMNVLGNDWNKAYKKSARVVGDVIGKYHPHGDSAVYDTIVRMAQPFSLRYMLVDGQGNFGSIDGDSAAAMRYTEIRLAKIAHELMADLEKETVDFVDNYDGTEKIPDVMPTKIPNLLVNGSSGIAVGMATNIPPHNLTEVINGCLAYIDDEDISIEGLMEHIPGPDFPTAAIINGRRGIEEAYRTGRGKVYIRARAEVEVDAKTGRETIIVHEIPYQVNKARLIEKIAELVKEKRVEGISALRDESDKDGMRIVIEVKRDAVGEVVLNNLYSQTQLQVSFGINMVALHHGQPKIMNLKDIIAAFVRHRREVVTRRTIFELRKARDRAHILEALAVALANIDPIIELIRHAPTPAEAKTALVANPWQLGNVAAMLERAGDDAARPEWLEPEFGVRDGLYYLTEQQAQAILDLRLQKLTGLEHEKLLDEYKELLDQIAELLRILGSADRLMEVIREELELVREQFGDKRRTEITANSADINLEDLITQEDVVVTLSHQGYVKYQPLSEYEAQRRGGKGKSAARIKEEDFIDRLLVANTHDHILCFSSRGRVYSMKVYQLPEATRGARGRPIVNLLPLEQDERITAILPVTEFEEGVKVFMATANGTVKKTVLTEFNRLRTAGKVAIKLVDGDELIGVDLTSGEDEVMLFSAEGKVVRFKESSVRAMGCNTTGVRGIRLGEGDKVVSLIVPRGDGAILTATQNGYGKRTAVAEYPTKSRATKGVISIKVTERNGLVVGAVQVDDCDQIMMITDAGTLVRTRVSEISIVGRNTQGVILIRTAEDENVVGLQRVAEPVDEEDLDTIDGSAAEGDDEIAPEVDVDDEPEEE
T1 sequence (P0AFI2 whole entry): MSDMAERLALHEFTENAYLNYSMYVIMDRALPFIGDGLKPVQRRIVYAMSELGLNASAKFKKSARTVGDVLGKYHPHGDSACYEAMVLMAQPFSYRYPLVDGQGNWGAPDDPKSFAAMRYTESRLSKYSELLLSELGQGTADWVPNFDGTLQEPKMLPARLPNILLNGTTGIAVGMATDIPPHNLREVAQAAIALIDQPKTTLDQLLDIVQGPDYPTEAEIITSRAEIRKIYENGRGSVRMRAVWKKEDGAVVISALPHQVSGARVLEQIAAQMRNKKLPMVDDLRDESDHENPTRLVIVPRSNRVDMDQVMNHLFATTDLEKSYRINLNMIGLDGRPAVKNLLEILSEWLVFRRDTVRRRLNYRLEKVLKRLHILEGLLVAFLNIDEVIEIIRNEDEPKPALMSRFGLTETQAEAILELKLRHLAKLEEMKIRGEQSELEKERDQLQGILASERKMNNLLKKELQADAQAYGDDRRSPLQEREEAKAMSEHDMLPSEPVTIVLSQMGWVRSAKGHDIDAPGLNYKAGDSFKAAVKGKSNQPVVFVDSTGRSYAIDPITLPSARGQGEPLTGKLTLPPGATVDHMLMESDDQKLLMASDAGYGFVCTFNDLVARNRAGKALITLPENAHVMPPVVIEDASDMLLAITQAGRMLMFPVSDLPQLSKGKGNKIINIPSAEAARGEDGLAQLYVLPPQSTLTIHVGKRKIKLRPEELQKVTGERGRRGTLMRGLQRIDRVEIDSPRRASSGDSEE
T1 sequence (P20083 whole entry): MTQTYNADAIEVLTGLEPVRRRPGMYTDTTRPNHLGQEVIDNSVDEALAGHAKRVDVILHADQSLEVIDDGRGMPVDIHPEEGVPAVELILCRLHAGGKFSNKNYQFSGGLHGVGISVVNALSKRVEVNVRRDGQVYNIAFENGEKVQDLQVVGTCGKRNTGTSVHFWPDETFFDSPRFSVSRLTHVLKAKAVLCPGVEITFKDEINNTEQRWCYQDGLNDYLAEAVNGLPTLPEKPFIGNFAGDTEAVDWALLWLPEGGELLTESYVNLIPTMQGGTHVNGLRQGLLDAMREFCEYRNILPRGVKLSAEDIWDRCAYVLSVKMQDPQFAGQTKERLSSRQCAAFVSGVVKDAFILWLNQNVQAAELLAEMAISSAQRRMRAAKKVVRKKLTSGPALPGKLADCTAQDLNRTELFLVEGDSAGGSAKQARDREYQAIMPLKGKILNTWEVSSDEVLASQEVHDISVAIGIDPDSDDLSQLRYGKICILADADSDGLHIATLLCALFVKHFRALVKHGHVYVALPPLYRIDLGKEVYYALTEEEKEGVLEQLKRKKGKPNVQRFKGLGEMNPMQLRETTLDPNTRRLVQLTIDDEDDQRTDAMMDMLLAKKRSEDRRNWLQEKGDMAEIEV

Compound: COc1ccc2nccc(-n3cc4c(n3)CCC(NC(=O)C3(c5ccc(Cl)cc5)CCCC3)C4)c2c1 (centres unmarked) [Example 80, 1-(4-Chloro-phenyl)-cyclopentanecarboxylic acid [2-(6-methoxy-quinolin-4-yl)-4,5,6,7-tetrahydro-2H-indazol-5-yl]-amide]
- IC50 [1, 6]: > 2000 nM
- MIC [2]: > 128 µg/mL
- MIC [3]: 128 µg/mL (≈ 255 µM)
- MIC [4, 7]: 8 µg/mL (≈ 16 µM)
- IC50 [5, 8]: > 31900 nM

Compound: COc1ccc2nccc(-n3cc4c(n3)CCC(NCC(=O)Nc3ccc5c(c3)NC(=O)CS5)C4)c2n1 (centres unmarked) [Example 83, 2-[2-(6-Methoxy-[1,5]naphthyridin-4-yl)-4,5,6,7-tetrahydro-2H-indazol-5-ylamino]-N-(3-oxo-3,4-dihydro-2H-benzo[1,4]thiazin-6-yl)-acetamide]
- IC50 [1, 6]: 485 nM
- MIC [2]: > 128 µg/mL
- MIC [3]: 32 µg/mL (≈ 62.1 µM)
- MIC [4, 7]: 2 µg/mL (≈ 3.88 µM)
- IC50 [5, 8]: < 485 nM

Compound: COc1ccc2nccc(-n3cc4c(n3)CCC(NC/C=C/c3ccccc3[N+](=O)[O-])C4)c2n1 (centres unmarked) [Example 89, [2-(6-Methoxy-[1,5]naphthyridin-4-yl)-4,5,6,7-tetrahydro-2H-indazol-5-yl]-[3-(2-nitro-phenyl)-allyl]-amine]
- IC50 [1, 6]: 32.9 nM
- MIC [2]: 16 µg/mL (≈ 35 µM)
- MIC [3]: 2 µg/mL (≈ 4.38 µM)
- MIC [4, 7]: 2 µg/mL (≈ 4.38 µM)
- IC50 [5, 8]: 274 nM

Compound: COc1ccc2nccc(-n3cc4c(n3)CCC(NCc3ccc5c(c3)NCCS5)C4)c2c1 (centres unmarked) [Example 102]
- IC50 [1, 6]: 137 nM
- MIC [2]: 8 µg/mL (≈ 17.5 µM)
- MIC [3]: 0.5 µg/mL (≈ 1.09 µM)
- MIC [4, 7]: 0.5 µg/mL (≈ 1.09 µM)
- IC50 [5, 8]: 1090 nM

Compound: COc1ccc2nccc(-n3cc4c(n3)CCC(NCc3cc5c(cc3Cl)OCCO5)C4)c2c1 (centres unmarked) [Example 103, (7-Chloro-2,3-dihydro-benzo[1,4]dioxin-6-ylmethyl)-[2-(6-methoxy-quinolin-4-yl)-4,5,6,7-tetrahydro-2H-indazol-5-yl]-amine]
- IC50 [1, 6]: 524 nM
- MIC [2]: 32 µg/mL (≈ 67.1 µM)
- MIC [3]: 4 µg/mL (≈ 8.39 µM)
- MIC [4, 7]: 0.5 µg/mL (≈ 1.05 µM)
- IC50 [5, 8]: 4190 nM

Compound: COc1ccc2nccc(-n3cc4c(n3)CCC(NC(=O)c3cc5c(cc3Br)SCC(=O)N5)C4)c2n1 (centres unmarked) [Example 113, 7-Bromo-3-oxo-3,4-dihydro-2H-benzo[1,4]thiazine-6-carboxylic acid [2-(6-methoxy-[1,5]naphthyridin-4-yl)-4,5,6,7-tetrahydro-2H-indazol-5-yl]-amide]
- IC50 [1, 6]: 442 nM
- MIC [2]: 2 µg/mL (≈ 3.54 µM)
- MIC [3]: 2 µg/mL (≈ 3.54 µM)
- MIC [4, 7]: 0.125 µg/mL (≈ 0.221 µM)
- IC50 [5, 8]: 442 nM

Compound: COc1ccc2nccc(-n3cc4c(n3)CCC(NC(=O)c3cc5c(cc3Br)SCC(=O)N5)C4)c2c1 (centres unmarked) [Example 114, 7-Bromo-3-oxo-3,4-dihydro-2H-benzo[1,4]thiazine-6-carboxylic acid [2-(6-methoxy-quinolin-4-yl)-4,5,6,7-tetrahydro-2H-indazol-5-yl]-amide]
- IC50 [1, 6]: 221 nM
- MIC [2]: 2 µg/mL (≈ 3.54 µM)
- MIC [3]: 2 µg/mL (≈ 3.54 µM)
- MIC ([4]; Staphylococcus aureus, ATCC13709, read-out: S. aureus ATCC13709 MIC): 0.125 µg/mL (≈ 0.221 µM)
- IC50 [5, 8]: 886 nM

Compound: COc1ccc2nccc(-n3cc4c(n3)CCC(NC(=O)c3cc5c(cc3C(F)(F)F)SCC(=O)N5)C4)c2c1 (centres unmarked) [Example 115, 3-Oxo-7-trifluoromethyl-3,4-dihydro-2H-benzo[1,4]thiazine-6-carboxylic acid [2-(6-methoxy-quinolin-4-yl)-4,5,6,7-tetrahydro-2H-indazol-5-yl]-amide]
- IC50 [1, 6]: 452 nM
- MIC [2]: 8 µg/mL (≈ 14.5 µM)
- MIC [3]: 8 µg/mL (≈ 14.5 µM)
- MIC [4, 7]: 0.125 µg/mL (≈ 0.226 µM)
- IC50 [5, 8]: 1810 nM

Compound: COc1ccc2nccc(-n3cc4c(n3)CCC(NC(=O)c3ccc5c(c3)NC(=O)CO5)C4)c2n1 (centres unmarked) [Example 117, 3-Oxo-3,4-dihydro-2H-benzo[1,4]oxazine-6-carboxylic acid [2-(6-methoxy-[1,5]naphthyridin-4-yl)-4,5,6,7-tetrahydro-2H-indazol-5-yl]-amide]
- IC50 [1, 6]: 531 nM
- MIC [2]: 4 µg/mL (≈ 8.5 µM)
- MIC [3]: 8 µg/mL (≈ 17 µM)
- MIC [4, 7]: 0.125 µg/mL (≈ 0.266 µM)
- IC50 [5, 8]: 2130 nM

Compound: COc1ccc2nccc(-n3cc4c(n3)CCC(NCCOc3cc(F)cc(F)c3)C4)c2c1 (centres unmarked) [Example 121]
- IC50 [1]: 277 nM
- MIC [2]: 8 µg/mL (≈ 17.8 µM)
- MIC [3]: 2 µg/mL (≈ 4.44 µM)
- MIC [4, 7]: 1 µg/mL (≈ 2.22 µM)
- IC50 [5]: 1110 nM
